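Protocol summary: plate cells (96-well), add compound at 5 concentrations, incubate 48 h, interpolate endpoints linearly. Abbreviation: GI50, concentration required for 50% inhibition of growth. TGI is the concentration that stops growth completely.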
Key:
Assay in all cases: growth of human tumour cells (NCI), 48 h
[1] = tested on: UACC-257 melanoma
[2] = tested on: SNB-75 CNS
[3] = tested on: SF-295 CNS
[4] = tested on: DU-145 prostate
[5] = tested on: OVCAR-3 ovarian
[6] = tested on: OVCAR-4 ovarian
[7] = tested on: OVCAR-8 ovarian
[8] = tested on: RPMI-8226 leukemia
[9] = tested on: SW-620 colon
[10] = tested on: NCI-H460 lung

SMILES	TGI [1] [µM]	TGI [2] [µM]	TGI [3] [µM]	TGI [4] [µM]	TGI [5] [µM]	TGI [6] [µM]	TGI [7] [µM]	TGI [8] [µM]	TGI [9] [µM]	TGI [10] [µM]	GI50 [1] [µM]	GI50 [2] [µM]	GI50 [3] [µM]	GI50 [4] [µM]	GI50 [5] [µM]	GI50 [6] [µM]	GI50 [7] [µM]	GI50 [8] [µM]	GI50 [9] [µM]	GI50 [10] [µM]
CCN(CC)CCN(C(=O)C(C)(C)C)c1ccccc1N	> 100	> 100	> 100	> 100	> 100	> 100	> 100	> 100	> 100	> 100										
CC1COCC(C)N1C1=C(Cl)C(=O)c2ccccc2C1=O (stereo not given)	3.08	23.2	17.7	22.9	2.92	3.03	13.6	5.68	3.24	33.6	1.6	10.7	2.94	10.7	1.56	1.61	3.73	2.04	1.74	15.8
COC1(OC)c2no[n+]([O-])c2C(OC)(OC)c2c1no[n+]2[O-]	25	83.3	80	> 100	28.3	> 100	26.7	87.8	35.8	> 100										
O=C(Nc1ccccc1C(=O)N/N=C(\c1ccccc1)c1ccccn1)c1ccc(F)cc1	> 100	> 100	> 100	> 100	> 100	> 100	> 100	> 100	> 100	4.19	0.793	4.81	0.262	0.351	0.211	0.207	0.31	0.51	0.448	0.105
COc1ccc(C(O)CC(O)(C(F)(F)F)C(F)(F)F)cc1 (stereo not given)	51.8	34.3	75.7	> 100	69.8	> 100	> 100	57.2	> 100	60.6										
CC1(C)OC2C(COS(N)(=O)=O)SC(n3cnc4cncnc43)C2O1 (stereo not given)	> 100	> 100	> 100	> 100	> 100	> 100	> 100	> 100	> 100	> 100	> 100	> 100	> 100	> 100	> 100	> 100	> 100	> 100	> 100	> 100

— PubChem BioAssay (NCI)
